# From US7538098B2, “19-nor-vitamin D analogs with 1,2 or 3,2 heterocyclic ring” (Wisconsin Alumni Research Foundation, priority 2006, dated 2009)
# “Also recorded” adds a separate entry of the source.
# How the values were obtained:
# [1] = target: T1, full-length recombinant rat vitamin D receptor (Rattus norvegicus, UniProt P13053); assay: Vitamin D receptor competitive binding with [3H]-1,25(OH)2D3; conditions: FIG. 1; for Ki: full-length recombinant rat VDR, read-out: Ki, competition with [3H]-1,25(OH)2D3 for binding to the vitamin D receptor
# T1 construct: Full-length recombinant rat receptor was expressed in E. coli BL21 (DE3) Codon Plus RIL cells; histidine tag (C); made in house; host or cells: E. coli BL21 (DE3) Codon Plus RIL
# T1 sequence (P13053 1-423): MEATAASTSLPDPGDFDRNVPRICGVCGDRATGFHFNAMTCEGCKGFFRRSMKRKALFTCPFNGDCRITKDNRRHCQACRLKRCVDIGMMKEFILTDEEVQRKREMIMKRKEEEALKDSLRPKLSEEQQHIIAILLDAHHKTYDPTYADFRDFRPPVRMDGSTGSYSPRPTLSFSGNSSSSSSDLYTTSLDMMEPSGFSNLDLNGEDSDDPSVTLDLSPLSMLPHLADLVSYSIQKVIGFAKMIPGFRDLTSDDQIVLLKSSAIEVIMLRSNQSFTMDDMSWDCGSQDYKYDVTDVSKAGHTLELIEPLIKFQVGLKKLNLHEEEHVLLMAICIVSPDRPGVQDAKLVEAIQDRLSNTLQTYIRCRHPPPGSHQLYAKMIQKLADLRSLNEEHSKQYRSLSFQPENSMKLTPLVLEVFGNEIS
# Procedure: Full-length recombinant rat receptor was expressed in E. coli BL21 (DE3) Codon Plus RIL cells and purified to homogeneity using two different column chromatography systems. The first system was a nickel affinity resin that utilizes the C-terminal histidine tag on this protein. The protein that was eluted from this resin was further purified using ion exchange chromatography (S-Sepharose
# Fast Flow). Aliquots of the purified protein were quick frozen in liquid nitrogen and stored at −80° C. until use. For use in binding assays, the protein was diluted in TEDK50 (50 mM Tris, 1.5 mM EDTA, pH7.4, 5 mM DTT, 150 mM KCI) with 0.1% Chaps detergent. The receptor protein and ligand concentration was optimized such that no more than 20% of the added radiolabeled ligand was bound to the receptor.
# Radiolabeled and unlabeled ligands were added to 100 mcl of the diluted protein at a final ethanol concentration of ≦10%, mixed and incubated overnight on ice to reach binding equilibrium. The following day, 100 mcl of hydroxylapatite slurry (50%) was added to each tube and mixed at 10-minute intervals for 30 minutes. The hydroxylapaptite was collected by centrifugation and then washed three times with Tris-EDTA buffer (50 mM Tris, 1.5 mM EDTA, pH 7.4) containing 0.5% Titron X-100. After the final wash, the pellets were transferred to scintillation vials containing 4 ml of Biosafe II scintillation cocktail, mixed and placed in a scintillation counter. Total binding was determined from the tubes containing only radiolabeled ligand.
# [2] = tested on: Human promyelocytic leukemia (HL60) cells; assay: HL-60 differentiation (nitro blue tetrazolium reduction); type: cell-based; conditions: FIG. 2; for EC50: Homo sapiens, HL-60
# Procedure: The study drugs were dissolved in ethanol and the concentrations determined using UV spectrophotometry. Serial dilutions were prepared so that a range of drug concentrations could be tested without changing the final concentration of ethanol (≦0.2%) present in the cell cultures.
# Human promyelocytic leukemia (HL60) cells were grown in RPMI-1640 medium containing 10% fetal bovine serum. The cells were incubated at 37° C. in the presence of 5% CO2.
# HL60 cells were plated at 1.2×10^5 cells/ml. Eighteen hours after plating, cells in duplicate were treated with drug. Four days later, the cells were harvested and a nitro blue tetrazolium reduction assay was performed (Collins et al., 1979; J. Exp. Med. 149:969-974). The percentage of differentiated cells was determined by counting a total of 200 cells and recording the number that contained intracellular black-blue formazan deposits. Verification of differentiation to monocytic cells was determined by measuring phagocytic activity (data not shown).
# [3] = tested on: 24-hydroxylase (24Ohase) gene promoter in ROS 17/2.8 (bone) cells; assay: In vitro transcription assay (luciferase reporter); type: cell-based; conditions: FIG. 3; for Transcriptional activity, result in words: 24-hydroxylase (CYP-24) promoter luciferase reporter; for EC50: 24-hydroxylase promoter luciferase reporter, read-out: EC50, transcriptional activity in bone cells
# Procedure: Transcription activity was measured in ROS 17/2.8 (bone) cells that were stably transfected with a 24-hydroxylase (24Ohase) gene promoter upstream of a luciferase reporter gene (Arbour et al., 1998). Cells were given a range of doses. Sixteen hours after dosing the cells were harvested and luciferase activities were measured using a luminometer. RLU=relative luciferase units
# D-sufficient CD-1 mice [4] = assay: Bone calcium mobilization, 2nd in vivo study (D-sufficient mice); conditions: single intraperitoneal injection, two doses, 72 hours; FIG. 5
# Procedure: (§1) 6-7 week old female CD-1 mice were purchased from Harlan (Indianapolis, Ind.). The animals were group housed and fed a purified diet containing 0.47% calcium. (Suda et al 1970 J. Nutrition). After a 5-7 day acclimation period, the animals were assigned to treatment groups (n=5-6/group) and given a single dose of the designated analogues by intraperitoneal injection. Blood was collected for serum calcium concentration analyses immediately prior to dose administration and 72 hours following dose delivery. Serum calcium were analyzed as described above.
# (§2) In vivo data were analyzed by one-way ANOVA followed by pairwise comparisons when significant overall differences were detected. Post-hoc analyses includes, Tukey's, Scheffe's, and Fisher's LSD tests. Only differences (p<0.05) that were present in two out of the three post-hoc tests were considered significant.
# D-deficient CD-1 mice = assay: Bone calcium mobilization, 1st in vivo study (D-deficient mice); conditions: for Bone calcium mobilization activity (serum calcium change), overall: single intraperitoneal injection, D-deficient CD-1 mice, FIG. 4
# Procedure: Female, CD-1 mice (6 weeks old) were purchased from Harlan Sprague-Dawley. Upon arrival, the animals were placed in a room with filtered lighting and fed a purified, D-deficient diet (Suda et al 1970 J. Nutrition) for 17 weeks. […] Serum calcium was measured by diluting with 0.1% lanthum chloride and reading the absorbance using an atomic absorption spectrometer. The change in serum calcium from pre-dose values (baseline) is reported.
# as §2
# Calcium mobilization from bone in vitamin D-deficient animals.
# D-sufficient CD-1 mice [5] = assay: Bone calcium mobilization, 3rd in vivo study (routes of administration); conditions: FIG. 6
# Source text: as §1, with “groups (n=5/group)” for “groups (n=5-6/group)”, “intraperitoneal injection or oral gavage.” for “intraperitoneal injection.”, “analyses at various timepoints” for “analyses immediately prior to dose administration and 72 hours”, “calcium was” for “calcium were”
# as §2
Ki [1],"VDR binding activity relative to 1,25-(OH)2D3 ([1]; less active than 1,25-(OH)2D3)",EC50 [2],SMILES,"HL-60 cell differentiation, result in words [2]","Transcriptional activity, result in words [3]",EC50 [3],Serum calcium change in D-sufficient mice (D-sufficient CD-1 mice [4]),"Bone calcium mobilization activity (serum calcium change), overall (D-deficient CD-1 mice)","VDR binding, result in words [1]","Calcemic response 48 hours after the dose (D-deficient CD-1 mice; D-deficient mice, analog doses exceeding thirty times that of the natural hormone, 48 hours)","Onset of serum calcium increase compared to 1,25(OH)2D3 (D-sufficient CD-1 mice [5])",Serum calcium increase by route of administration (D-sufficient CD-1 mice [5]; oral gavage vs. intraperitoneal injection)
30 nM,3 orders of magnitude,100 nM,C[C@H](CCCC(C)(C)O)[C@H]1CC[C@H]2/C(=C/C=C3/C[C@@H](O)C4=CCCO[C@@H]4C3)CCC[C@]12C [REV-A],"considerably less active than 1,25(OH)2D3","weak transcriptional activity; also recorded: much less transcriptional activity than 1α,25-dihydroxyvitamin D3",30 nM,no significant increase in serum calcium,–,–,–,–,–
> 10000 nM,–,1000 nM,C[C@H](CCCC(C)(C)O)[C@H]1CC[C@H]2/C(=C/C=C3\C[C@@H](O)C4=CCCO[C@@H]4C3)CCC[C@]12C [REV-B],"lacks activity in cellular differentiation; also recorded: considerably less active than 1,25(OH)2D3",essentially no transcriptional activity; also recorded: lacks activity; also recorded: inactive,–,remarkable in vivo activity of REV-B to raise blood calcium levels,considerable bone calcium mobilization activity,does not bind to the VDR; also recorded: little binding activity for VDR,markedly more active,significant delay,"Both routes of administration are effective at causing an increase in serum calcium; however, intraperitoneal injection is more effective than oral gavage"

SMILES,Ki [1],"VDR binding activity relative to 1,25-(OH)2D3 ([1]; less active than 1,25-(OH)2D3)",EC50 [2],"HL-60 cell differentiation, result in words [2]","Transcriptional activity, result in words [3]",EC50 [3],Serum calcium change in D-sufficient mice (D-sufficient CD-1 mice [4]),"Bone calcium mobilization activity (serum calcium change), overall (D-deficient CD-1 mice)","VDR binding, result in words [1]","Calcemic response 48 hours after the dose (D-deficient CD-1 mice; D-deficient mice, analog doses exceeding thirty times that of the natural hormone, 48 hours)","Onset of serum calcium increase compared to 1,25(OH)2D3 (D-sufficient CD-1 mice [5])",Serum calcium increase by route of administration (D-sufficient CD-1 mice [5]; oral gavage vs. intraperitoneal injection)
"C=C1/C(=C\C=C2/CCC[C@]3(C)[C@@H]([C@H](C)CCCC(C)(C)O)CC[C@@H]23)C[C@@H](O)C[C@@H]1O [1,25(OH)2D3, 1α,25-dihydroxyvitamin D3, reference compound]",–,–,2 nM,–,–,0.2 nM,–,increased serum calcium levels,–,–,–,–
